Experimental data taken from patent publication US20220144823A1, “PYRAZOLOPYRIDINE DERIVATIVES AS INHIBITORS OF PASK” (Galapagos NV, priority 2019, published 2022).

Experiments:
human PASK [1] = biological target: T1, human PASK (Homo sapiens, UniProt Q96RG2); assay: ADP-Glo kinase assay; format: biochemical; settings: ADPGlo PASK kinase assay, 25 μM ATP, ZIPtide 25 μM
T1 construct: purchased ThermoFisher Scientific PR7013A
Experimental: The ADP-Glo™ kinase assay is a luminescent technology assay which measures the ADP formed from a kinase reaction. In this specific study, the kinase reactions consisted of the phosphorylation of the ZIPtide peptide substrate by human recombinant PASK. In a second step the kinase reaction is terminated and all the remaining ATP is depleted. In a final step the ADP is converted into ATP and this newly synthesized ATP is measured by using a luciferase/luciferin reaction. The generated light is measured using an Envision plate reader, wherein the luminescent signal obtained positively correlates with the kinase activity.
The test compounds are prepared as a serial dilution of 10 point dose responses with 1/5 dilution steps in 100% DMSO starting from 2 mM highest concentration, diluted 1/20 in water and 1 μL is transferred to the assay plates (PerkinElmer Inc., Cat #6007290).
(§1) 1% DMSO and 10 μM staurosporine final concentrations are used respectively as negative and positive controls.
2 μL enzyme-substrate mixture is added to the assay plates.
The reaction is started by adding 2 μL diluted ATP on the assay plates immediately after addition of the enzyme-substrate mixture to the compound. Plates are centrifuged for a few seconds at 1000 rpm and gently shaken for 2 min followed by an incubation at RT for 120 min.
The reactions are stopped and the unconsumed ATP is depleted by adding 5 μL ADP-Glo Reagent (Promega, Cat #V912B) to the reaction. The plates are centrifuged for a few seconds at 1000 rpm and incubated at RT for 40 min (ATP depletion).
The ADP is converted to ATP and luciferase and luciferin is introduced to detect ATP by adding 10 μL Kinase Detection Reagent (Promega, Cat #V913B+V914B) to the reaction. The plates are centrifuged for a few seconds at 1000 rpm and incubated at RT for 30 min (ADP detection).
Luminescence is measured on an Envision plate reader (PerkinElmer Inc.).
Raw data are generated following the read-out performed on the Envision plate reader, used to calculate percentage inhibition (PIN) values and plotted to generate dose response curves and derive the average half maximal inhibitory concentrations (IC50) reported in Table VIII.

[2] = biological target: T2, autophosphorylation of PASK at position Thr307 in Hek293 cells overexpressing PASK (Homo sapiens, UniProt Q96RG2); assay: PASK autophosphorylation ELISA assay; format: cell-based; settings: 24 h, ELISA readout
T2 construct: expressed in transfected cells; host or cells: Hek293
Experimental: The compounds of the invention are profiled in a cellular assay to determine their capacity to reduce the autophosphorylation levels of PASK at position Thr307 in Hek293 cells overexpressing PASK, using an ELISA-based readout.
At day 1, a 96-well cell assay plate is coated with poly-D-lysine (50 μL/well of a 0.05 mg/mL solution in PBS) and incubated for 1 h at 37° C. The plate is subsequently washed once with PBS and stored dry at RT until further use. Hek293 cells are transfected with a pcDNA3.1-PASK(FL,WT)-FLAG construct (SEQ ID1) and seeded in culture medium (DMEM+10% FBS) in a poly-D-lysine coated 96-well plate (0.3 μL JetPEI DNA transfection reagent (Polyplus-transfection SA, Cat #101-40), 10 ng construct and 90 ng pBluescript, 60000 cells per well). […] The cell plate is incubated overnight at 37° C., 5% CO2.
At day 2, the medium of the assay plate is removed and 100 μL of fresh medium (DMEM+10% FBS) is added to the plate. Cell plate is further incubated overnight at 37° C., 5% CO2. This to allow further expression of PASK protein.
At day 3, the medium is removed and replaced with 100 μL of serum free medium (DMEM). Test compound is added to the plate (8 points concentration curve with 1/3 dilution steps starting from 30 μM final concentration in 0.3% DMSO final). In the positive and negative control wells of the plate, 0.3% DMSO final is added. For each tested condition, duplicates are made for ELISA readout. Cell plate is incubated 24 h at 37° C., 5% CO2.
At day 4, the medium is removed and the plate is washed once with 100 μL/well PBS. Cells are lysed by adding 50 μL/well western blot lysis buffer (20 mM Tris pH 7.5, 150 mM NaCl and 1% Triton) to the plate. The assay plate is stored at −80° C. and thawed to perform the ELISA readout.
At day 1, the ELISA plate is coated with the mouse anti-FLAG antibody (2 μg/mL diluted in PBS, 100 μL/well) and incubated overnight at 4° C.
At day 2, the plate is washed once with 150 μL/well PBS. 200 μL/well blocking buffer (PBS with 3% BSA) is added and the plate is incubated for 4 h at RT. The plate is washed with 150 μL/well high salt washing buffer (20 mM Na2HPO4, 0.5% Triton X-100, 0.1% SDS, 0.1% BSA and 1 M NaCl) followed by one wash with 150 μL/well low salt washing buffer (20 mM Na2HPO4, 0.5% Triton X-100, 0.1% SDS, 0.1% BSA and 150 mM NaCl). Meanwhile, the cell lysate plate is thawed, two wells of the same condition are pooled (2×50 μL) and added to the ELISA plate. The ELISA plate is incubated overnight at 4° C.
At day 3, the ELISA plate is washed twice with 150 μL/well high salt washing buffer followed by two washes with low salt washing buffer. 100 μL/well detection antibody for pPASK (phospho-Akt substrate (RXXS*/T*) (110B7E) rabbit antibody (Cell Signaling Technology, Inc., Cat #9614) 2 μg/mL diluted in PBS with 3% BSA and 1×Halt™ protease and phosphatase inhibitor cocktail (Thermo Fisher Scientific, Inc., Cat #78447)) is added and incubated for 2 h at RT. The plate is washed twice with high and low salt wash buffer (150 μL/well) and 100 μL/well of an HRP antibody (swine anti-rabbit HRP antibody (Agilent Technologies, Inc., Cat #P039901) diluted 1/2000 in PBS with 3% BSA and 1×Halt™ protease and phosphatase inhibitor cocktail) is added to the plate, followed by an incubation for 1 h at RT in the dark (plate sealed with aluminum seal). The plate is washed twice with high and low salt wash buffer (150 μL/well) and 100 μL/well of SuperSignal™ ELISA Pico Chemiluminescent Substrate (Thermo Fisher Scientific, Inc., Cat #37070)(premix part 1 and part 2, 1/1) is added. The plate is incubated for 4 min at RT before measuring luminescence on the Luminoskan™ Ascent (Thermo Fisher Scientific, Inc.) (PMT default voltage; 100 ms integration time). […]

human PASK [3] = biological target: T1, human PASK; assay: 33P radioactive kinase assay; format: biochemical; settings: 33P radioactive PASK kinase assay, 10 μM ATP, ZIPtide 1 μM
Experimental: The principle of the ^33P radioactive kinase assay consists in measuring the incorporated ^33P into the ZIPtide peptide substrate when phosphorylated by human PASK using [^33P]-[…]-ATP and ATP, which correlates with kinase activity.
The test compounds are prepared as a serial dilution of 10 point dose responses with 1/5 dilution steps in 100% DMSO starting from 0.2 or 2 mM highest concentration, diluted 1/20 in water and 5 μL is transferred to the assay plates (Greiner, Cat #651201).
as §1
11 μL of enzyme-substrate mixture is added on the assay plates. The reactions are started by adding 9 μL ATP mixture, consisting of non-labeled and ^33P-labeled ATP, on the assay plates.
The reactions are stopped by adding 25 μL phosphoric acid (150 mM) to the reactions.
The completely terminated kinase reactions are transferred using a harvester on pre-wetted UniFilter-96 plates (UniFilter-96 GF/B, PerkinElmer Inc., Cat #6005177).
After harvesting the kinase reactions, the filter plates are washed 6 times with phosphoric acid (75 mM). The back of the UniFilter-96 plates are sealed and 40 μL MicroScint-20 (PerkinElmer Inc., Cat #6013621) is added to each well. The top of each plate is sealed with TopSeal-A (PerkinElmer Inc., Cat #6050185). Read-out is performed with a TopCount instrument (PerkinElmer Inc.).
Raw data are generated following the read-out performed on the TopCount, used to calculate percentage inhibition (PIN) values and plotted to generate dose response curves and derive the average half maximal inhibitory concentrations (IC50) reported in Table VI.

T1 sequence (Q96RG2 whole entry): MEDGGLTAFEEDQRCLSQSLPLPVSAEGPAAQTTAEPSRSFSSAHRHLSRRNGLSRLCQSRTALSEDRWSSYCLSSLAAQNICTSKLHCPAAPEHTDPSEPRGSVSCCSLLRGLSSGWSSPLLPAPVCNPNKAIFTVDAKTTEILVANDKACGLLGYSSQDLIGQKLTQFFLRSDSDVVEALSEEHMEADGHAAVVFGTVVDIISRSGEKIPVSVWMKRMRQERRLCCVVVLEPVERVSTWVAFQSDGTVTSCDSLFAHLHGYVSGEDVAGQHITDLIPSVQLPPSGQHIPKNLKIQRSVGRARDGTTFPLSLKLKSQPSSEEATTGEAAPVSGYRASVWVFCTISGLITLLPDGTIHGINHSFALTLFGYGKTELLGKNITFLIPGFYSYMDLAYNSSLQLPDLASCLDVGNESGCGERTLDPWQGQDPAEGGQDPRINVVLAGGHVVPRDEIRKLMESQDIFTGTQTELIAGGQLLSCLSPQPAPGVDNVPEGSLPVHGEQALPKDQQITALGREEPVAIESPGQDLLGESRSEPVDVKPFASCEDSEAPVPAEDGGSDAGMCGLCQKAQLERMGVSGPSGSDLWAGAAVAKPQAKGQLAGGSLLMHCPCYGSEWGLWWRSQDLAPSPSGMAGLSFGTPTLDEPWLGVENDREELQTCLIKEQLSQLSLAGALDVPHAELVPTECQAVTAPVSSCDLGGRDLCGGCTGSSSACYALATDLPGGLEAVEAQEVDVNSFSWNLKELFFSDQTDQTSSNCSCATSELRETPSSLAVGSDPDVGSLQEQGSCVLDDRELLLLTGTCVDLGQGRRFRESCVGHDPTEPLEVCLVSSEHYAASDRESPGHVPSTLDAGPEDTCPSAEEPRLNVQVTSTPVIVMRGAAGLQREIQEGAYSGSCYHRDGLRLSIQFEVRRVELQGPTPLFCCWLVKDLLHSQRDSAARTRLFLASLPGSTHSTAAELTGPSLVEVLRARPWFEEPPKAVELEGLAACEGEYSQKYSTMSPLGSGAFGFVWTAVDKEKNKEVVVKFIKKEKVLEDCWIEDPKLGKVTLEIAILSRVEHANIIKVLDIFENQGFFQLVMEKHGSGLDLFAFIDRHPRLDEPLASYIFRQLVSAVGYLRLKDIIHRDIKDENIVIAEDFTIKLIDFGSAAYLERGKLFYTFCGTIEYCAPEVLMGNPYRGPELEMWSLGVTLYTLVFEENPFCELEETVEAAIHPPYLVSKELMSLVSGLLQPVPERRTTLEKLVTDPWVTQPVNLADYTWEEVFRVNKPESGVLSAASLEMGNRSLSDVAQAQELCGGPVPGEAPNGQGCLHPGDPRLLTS
T2 sequence (Q96RG2 with tags, fused parts or gaps): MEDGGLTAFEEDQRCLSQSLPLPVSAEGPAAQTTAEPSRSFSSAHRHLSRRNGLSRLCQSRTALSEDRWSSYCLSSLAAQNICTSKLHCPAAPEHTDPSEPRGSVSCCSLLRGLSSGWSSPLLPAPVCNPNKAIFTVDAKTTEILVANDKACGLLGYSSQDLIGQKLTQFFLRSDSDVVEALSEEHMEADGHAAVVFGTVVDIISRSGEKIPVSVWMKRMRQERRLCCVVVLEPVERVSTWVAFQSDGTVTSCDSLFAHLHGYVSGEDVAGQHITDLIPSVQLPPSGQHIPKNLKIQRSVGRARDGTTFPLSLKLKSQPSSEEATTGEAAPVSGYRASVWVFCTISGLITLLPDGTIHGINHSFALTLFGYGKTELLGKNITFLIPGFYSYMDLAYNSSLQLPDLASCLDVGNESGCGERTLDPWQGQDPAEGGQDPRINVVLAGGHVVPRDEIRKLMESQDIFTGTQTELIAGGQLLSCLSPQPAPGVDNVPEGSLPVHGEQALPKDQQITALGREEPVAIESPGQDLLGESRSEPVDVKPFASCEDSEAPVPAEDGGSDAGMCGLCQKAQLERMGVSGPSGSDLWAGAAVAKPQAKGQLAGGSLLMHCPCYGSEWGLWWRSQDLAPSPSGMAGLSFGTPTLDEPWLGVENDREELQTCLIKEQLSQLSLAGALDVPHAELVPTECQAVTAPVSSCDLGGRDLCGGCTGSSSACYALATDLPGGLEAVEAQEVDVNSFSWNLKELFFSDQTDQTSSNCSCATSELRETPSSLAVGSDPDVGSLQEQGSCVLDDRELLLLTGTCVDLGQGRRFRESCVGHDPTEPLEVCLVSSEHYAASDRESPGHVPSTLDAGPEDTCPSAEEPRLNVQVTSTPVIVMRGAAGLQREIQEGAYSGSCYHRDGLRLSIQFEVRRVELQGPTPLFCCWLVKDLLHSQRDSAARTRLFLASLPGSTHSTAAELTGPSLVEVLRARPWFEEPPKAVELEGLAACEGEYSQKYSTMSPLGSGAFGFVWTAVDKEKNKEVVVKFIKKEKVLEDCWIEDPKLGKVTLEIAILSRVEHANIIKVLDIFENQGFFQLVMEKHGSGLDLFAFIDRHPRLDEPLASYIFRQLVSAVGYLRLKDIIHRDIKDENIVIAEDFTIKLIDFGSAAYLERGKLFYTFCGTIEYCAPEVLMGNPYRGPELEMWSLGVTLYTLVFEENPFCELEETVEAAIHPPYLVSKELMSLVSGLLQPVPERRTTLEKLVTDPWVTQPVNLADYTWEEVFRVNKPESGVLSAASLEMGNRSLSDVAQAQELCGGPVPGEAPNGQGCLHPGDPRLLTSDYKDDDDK

Row | IC50 (human PASK [1]) [nM] | IC50 [2] [nM] | IC50 (human PASK [3]) [nM] | Structure (SMILES)
1 | 0.01 to 10 | 1000 to 5000 | – | COc1nc(-c2ccn3ncc(-c4c(C(F)(F)F)nn(C)c4C)c3c2)sc1C(=O)O [Cpd 89, 2-[3-[1,5-dimethyl-3-(trifluoromethyl)pyrazol-4-yl]pyrazolo[1,5-a]pyridin-5-yl]-4-methoxy-thiazole-5-carboxylic acid]
2 | 0.01 to 10 | 1000 to 5000 | – | COc1nn(-c2ccn3ncc(-c4c(C(F)(F)F)nn(C)c4C)c3c2)cc1C(=O)O [Cpd 78, 1-[3-[1,5-dimethyl-3-(trifluoromethyl)pyrazol-4-yl]pyrazolo[1,5-a]pyridin-5-yl]-3-methoxy-pyrazole-4-carboxylic acid]
3 | 0.01 to 10 | 500 to 1000 | – | Cc1nn(C)c(C)c1-c1cnn2ccc(-c3nc(OCC(F)(F)F)c(C(=O)O)s3)cc12 [Cpd 90, 4-(2,2,2-trifluoroethoxy)-2-[3-(1,3,5-trimethylpyrazol-4-yl)pyrazolo[1,5-a]pyridin-5-yl]thiazole-5-carboxylic acid]
4 | 0.01 to 10 | 1000 to 5000 | – | Cc1c(-c2cnn3ccc(-n4cc(C(=O)O)cn4)cc23)c(C(F)(F)F)nn1C(C)C [Cpd 76, 1-[3-[1-isopropyl-5-methyl-3-(trifluoromethyl)pyrazol-4-yl]pyrazolo[1,5-a]pyridin-5-yl]pyrazole-4-carboxylic acid]
5 | 0.01 to 10 | > 5000 | – | COc1nc(-c2ccn3ncc(-c4c(C)nn(CC(F)(F)F)c4C)c3c2)sc1C(=O)O [Cpd 77, 2-[3-[3,5-dimethyl-1-(2,2,2-trifluoroethyl)pyrazol-4-yl]pyrazolo[1,5-a]pyridin-5-yl]-4-methoxy-thiazole-5-carboxylic acid]
6 | 0.01 to 10 | – | 0.01 to 10 | CCn1nc(C)c(-c2cnn3ccc(-c4ncc(C(=O)O)s4)cc23)c1C [Cpd 29, 2-[3-(1-ethyl-3,5-dimethyl-pyrazol-4-yl)pyrazolo[1,5-a]pyridin-5-yl]thiazole-5-carboxylic acid]

Further lines, the compound ahead of its results:

Row | Structure (SMILES) | IC50 (human PASK [1]) [nM] | IC50 [2] [nM] | IC50 (human PASK [3]) [nM]
7 | Cc1nn(C(F)F)c(C)c1-c1cnn2ccc(-c3ncc(C(=O)O)s3)cc12 [Cpd 50, 2-[3-[1-(difluoromethyl)-3,5-dimethyl-pyrazol-4-yl]pyrazolo[1,5-a]pyridin-5-yl]thiazole-5-carboxylic acid] | 0.01 to 10 | > 5000 | –
8 | COc1nc(-c2ccn3ncc(-c4c(C)nn(C(C)C)c4C)c3c2)sc1C(=O)O [Cpd 74, 2-[3-(1-isopropyl-3,5-dimethyl-pyrazol-4-yl)pyrazolo[1,5-a]pyridin-5-yl]-4-methoxy-thiazole-5-carboxylic acid] | 0.01 to 10 | > 5000 | –
9 | COc1nn(-c2ccn3ncc(-c4c(C)nn(C(F)F)c4C)c3c2)cc1C(=O)O [Cpd 71, 1-[3-[1-(difluoromethyl)-3,5-dimethyl-pyrazol-4-yl]pyrazolo[1,5-a]pyridin-5-yl]-3-methoxy-pyrazole-4-carboxylic acid] | 0.01 to 10 | > 5000 | –
10 | COc1nc(-c2ccn3ncc(-c4c(C)nn(C(F)F)c4C)c3c2)sc1C(=O)O [Cpd 79, 2-[3-[1-(difluoromethyl)-3,5-dimethyl-pyrazol-4-yl]pyrazolo[1,5-a]pyridin-5-yl]-4-methoxy-thiazole-5-carboxylic acid] | 0.01 to 10 | > 5000 | –
11 | Cc1nn(C(F)F)c(C)c1-c1cnn2ccc(-n3cc(C(=O)O)cn3)cc12 [Cpd 69, 1-[3-[1-(difluoromethyl)-3,5-dimethyl-pyrazol-4-yl]pyrazolo[1,5-a]pyridin-5-yl]pyrazole-4-carboxylic acid] | 0.01 to 10 | > 5000 | –
12 | Cc1c(-c2cnn3ccc(-n4cc(C(=O)O)cn4)cc23)c(C(F)(F)F)nn1C [Cpd 67, 1-[3-[1,5-dimethyl-3-(trifluoromethyl)pyrazol-4-yl]pyrazolo[1,5-a]pyridin-5-yl]pyrazole-4-carboxylic acid] | 0.01 to 10 | 1000 to 5000 | –
13 | CCOc1nc(-c2ccn3ncc(-c4c(C)nn(CC)c4C)c3c2)sc1C(=O)O [Cpd 64, 4-ethoxy-2-[3-(1-ethyl-3,5-dimethyl-pyrazol-4-yl)pyrazolo[1,5-a]pyridin-5-yl]thiazole-5-carboxylic acid] | 0.01 to 10 | 0.1 to 500 | –
14 | Cc1noc(C)c1-c1cnn2ccc(-c3nc(C4CC4)c(C(=O)O)s3)cc12 [Cpd 37, 4-cyclopropyl-2-[3-(3,5-dimethylisoxazol-4-yl)pyrazolo[1,5-a]pyridin-5-yl]thiazole-5-carboxylic acid] | 0.01 to 10 | – | 0.01 to 10
